In brackets after ≈: the same amount, converted by molar mass. Peptide text beside a SMILES is read from it.
Tests used:
A. baumannii ATCC 19606 = format: cell-based, Acinetobacter baumannii; conditions: ATCC 19606, 20 h
How it was run: (§1)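 Broth microdilution with peptides at 1 to 64 μmol l^−1. Inocula came from overnight LB cultures diluted 1:100 and grown at 37 °C to log phase (OD600 = 0.3–0.5); growth read by OD600, three biological replicates.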

S. aureus ATCC 12600 = format: cell-based, Staphylococcus aureus; conditions: ATCC 12600, 20 h
Description: (§2) The following Gram-negative bacteria were used in our study: A. baumannii ATCC 19606, E. coli ATCC 11775, E. coli AIC221 (E. coli MG1655 phnE_2::FRT), E. coli AIC222 (E. coli MG1655 pmrA53 phnE_2::FRT (colistin resistant)), K. pneumoniae ATCC 13883, P. aeruginosa PAO1 and P. aeruginosa PA14. The following Gram-positive bacteria were also used in our study: S. aureus ATCC 12600, S. aureus ATCC BAA-1556 (methicillin-resistant strain), E. faecalis ATCC 700802 (vancomycin-resistant strain) and E. faecium ATCC 700221 (vancomycin-resistant strain). Bacteria were grown from frozen stocks and plated on Luria–Bertani (LB) or Pseudomonas isolation agar plates (P. aeruginosa strains) and incubated overnight at 37 °C. After the incubation period, a single colony was transferred to 5 ml of LB medium, and cultures were incubated overnight (16 h) at 37 °C. The following day, an inoculum was prepared by diluting the overnight cultures 1:100 in 5 ml of the respective media and incubating them at 37 °C until bacteria reached logarithmic phase (OD600 = 0.3–0.5).
(§3) The in vitro antimicrobial activity of the peptides was assessed by using the broth microdilution assay. […] Aqueous solutions of the peptides were added to the plate at concentrations ranging from 1 to 64 μmol l^−1. […] The optical density of the plates was measured at 600 nm using a spectrophotometer. All assays were done as three biological replicates.

[1] = tested on: S. aureus ATCC BAA-1556 (methicillin-resistant strain); format: cell-based, Staphylococcus aureus; conditions: ATCC BAA-1556, 20 h
Description: as §2, §3

[2] = tested on: E. faecium ATCC 700221 (vancomycin-resistant strain); format: cell-based, Enterococcus faecium; conditions: ATCC 700221, 20 h
Description: as §2, §3

HEK293T cells = conditions: 24 h
How it was run: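 5,000 cells/well seeded a day ahead in DMEM with 10% FBS, then treated with peptides; viability by MTT (0.5 mg/ml, 4 h, 37 °C), formazan in acidic isopropanol read at 570 nm. Concentration causing 50% lysis from non-linear regression; three biological replicates, two technical each.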

[3] = tested on: 11 clinically relevant bacterial pathogens; format: cell-based; conditions: for Active or Inactive: Supplementary Dataset 2, against the 11 pathogens tested
How it was run: as §1

E. coli AIC221 = format: cell-based, Escherichia coli; conditions: AIC221, 20 h
Description: as §2, §3

K. pneumoniae ATCC 13883 = format: cell-based, Klebsiella pneumoniae; conditions: ATCC 13883, 20 h
Description: as §2, §3

P. aeruginosa PA14 = format: cell-based, Pseudomonas aeruginosa; conditions: PA14, 20 h
Description: as §2, §3

P. aeruginosa PAO1 = format: cell-based, Pseudomonas aeruginosa; conditions: PAO1, 20 h
Description: as §2, §3

[4] = tested on: E. faecalis ATCC 700802 (vancomycin-resistant strain); format: cell-based, Enterococcus faecalis; conditions: ATCC 700802, 20 h
Description: as §2
as §3, with “All assays were done as three biological replicates.” left out

Structure (SMILES) | Minimal inhibitory concentration, A. baumannii ATCC19606 (A. baumannii ATCC 19606) [µM] | Minimal inhibitory concentration, S. aureus ATCC12600 (S. aureus ATCC 12600) [µM] | Minimal inhibitory concentration, S. aureus ATCC BAA-1556-MRSA [1] [µM] | Minimal inhibitory concentration, E. faecium ATCC700221-VRE [2] [µM] | CC50 (HEK293T cells) [µM] | Active or Inactive [3] | Minimal inhibitory concentration, E. coli AIC221 (E. coli AIC221) [µM] | Minimal inhibitory concentration, K. pneumoniae ATCC133883 (K. pneumoniae ATCC 13883) [µM] | Minimal inhibitory concentration, P. aeruginosa PA14 (P. aeruginosa PA14) [µM] | Minimal inhibitory concentration, P. aeruginosa PAO1 (P. aeruginosa PAO1) [µM] | MIC (lowest MIC value in the antimicrobial activity assays) ([3]; Supplementary Table 17, lowest MIC among the strains tested) [µM] | Minimal inhibitory concentration, E. faecalis ATCC700802-VRE [4] [µM] | TI (therapeutic index) (HEK293T cells)
CC[C@H](C)[C@H](NC(=O)[C@H](CO)NC(=O)CNC(=O)[C@H](CC(C)C)NC(=O)[C@H](CC(C)C)NC(=O)[C@H](CC(C)C)NC(=O)[C@H](CCCNC(=N)N)NC(=O)[C@H](CCCCN)NC(=O)[C@@H](NC(=O)[C@H](CO)NC(=O)[C@H](CC(N)=O)NC(=O)[C@@H](NC(=O)[C@H](CC(C)C)NC(=O)[C@@H](N)CC(C)C)[C@@H](C)CC)[C@@H](C)CC)C(=O)N[C@@H](CC(C)C)C(=O)O [Arctodutin-1] (H-LLINSIKRLLLGSIL-OH; N-terminus and C-terminus assumed) | 8 (≈ 13.3 µg/mL) | 8 (≈ 13.3 µg/mL) | 8 (≈ 13.3 µg/mL) | 2 (≈ 3.33 µg/mL) | > 128 | Active | – | – | – | – | – | – | –
CC(C)C[C@H](NC(=O)[C@H](CC(C)C)NC(=O)[C@@H](NC(=O)[C@H](CCCNC(=N)N)NC(=O)[C@H](C)NC(=O)[C@H](Cc1ccccc1)NC(=O)[C@H](CCCNC(=N)N)NC(=O)[C@H](CO)NC(=O)[C@H](Cc1c[nH]c2ccccc12)NC(=O)[C@H](CCCNC(=N)N)NC(=O)[C@H](CC(C)C)NC(=O)[C@H](CCCCN)NC(=O)[C@H](CC(C)C)NC(=O)[C@@H](N)Cc1ccccc1)C(C)C)C(=O)O [Equusin-1] (H-FLKLRWSRFARVLL-OH; N-terminus and C-terminus assumed) | – | – | 16 (≈ 28.9 µg/mL) | 1 (≈ 1.81 µg/mL) | > 128 | Active | 4 (≈ 7.22 µg/mL) | 16 (≈ 28.9 µg/mL) | 4 (≈ 7.22 µg/mL) | 16 (≈ 28.9 µg/mL) | 1 (≈ 1.81 µg/mL) | – | –
CC[C@H](C)[C@H](NC(=O)[C@H](CCCCN)NC(=O)[C@H](CCCCN)NC(=O)[C@H](Cc1ccccc1)NC(=O)[C@H](Cc1ccccc1)NC(=O)[C@@H](NC(=O)[C@@H](NC(=O)[C@H](CO)NC(=O)[C@H](CCCCN)NC(=O)[C@@H](NC(=O)[C@@H](NC(=O)[C@H](Cc1c[nH]c2ccccc12)NC(=O)[C@H](CCCCN)NC(=O)[C@H](CCCCN)NC(=O)[C@@H](NC(=O)[C@H](CCC(=O)O)NC(=O)[C@H](CCCCN)NC(=O)[C@H](CC(C)C)NC(=O)[C@@H](NC(=O)[C@H](CCCCN)NC(=O)[C@H](CCCNC(=N)N)NC(=O)[C@H](CC(C)C)NC(=O)[C@H](CC(C)C)NC(=O)[C@@H](N)CCCCN)C(C)C)[C@@H](C)O)C(C)C)[C@@H](C)CC)C(C)C)C(C)C)C(=O)N[C@@H](CCCNC(=N)N)C(=O)N[C@@H](CCCCN)C(=O)O [Hesperelin-1] (H-KLLRKVLKETKKWVIKSVVFFKKIRK-OH; N-terminus and C-terminus assumed) | 4 (≈ 13 µg/mL) | – | – | 2 (≈ 6.49 µg/mL) | > 128 | Active | 8 (≈ 26 µg/mL) | – | 16 (≈ 51.9 µg/mL) | 8 (≈ 26 µg/mL) | – | – | –
CC[C@H](C)[C@H](NC(=O)[C@H](CCCCN)NC(=O)[C@H](CC(C)C)NC(=O)[C@H](CCC(N)=O)NC(=O)[C@H](Cc1ccccc1)NC(=O)[C@@H](NC(=O)[C@@H](NC(=O)[C@H](Cc1ccccc1)NC(=O)[C@H](CC(C)C)NC(=O)[C@@H](NC(=O)[C@@H](N)CC(C)C)[C@@H](C)O)[C@@H](C)CC)[C@@H](C)CC)C(=O)N[C@@H](CO)C(=O)N[C@@H](CCCCN)C(=O)N[C@@H](CC(C)C)C(=O)O [Paleopropin-1] (H-LTLFIIFQLKISKL-OH; N-terminus and C-terminus assumed) | – | – | – | – | > 128 | Active | – | – | – | – | – | 16 (≈ 26.8 µg/mL) | > 4
